In this experiment the test system is normal human bronchial epithelial cells (NHBE). The experiment is described as follows: Cumulative dose kinetic responses of intracellular Ca++, Cl- and cell membrane potential (simultaneous three-fluorophore photon counting: Fluo-3, di-MEQ, RH421). It is filed as cell-based. To be noted: for intracellular Ca++ response / intracellular Cl- response / membrane potential response: cumulative dosing. The method, then:
Normal human bronchial/tracheal epithelial cells (NHBE, Clonetics) were cultured in T-25 cm^2 flasks at 37° C., 5% CO2 using Bronchial/Tracheal Epithelial Cell Growth Medium containing Retinoic Acid (BEGM, w/RA, Clonetics). When the NHBE cells in the T-25 flasks reached 60%-80% confluency, the cells were passaged using a seeding density of 3500 cells/cm^2. A portion of the cells was passaged in T-25 flasks again while the remaining cells were seeded on UV-exposed Vitrogen (pH balanced 1:1 BEGM to Vitrogen) coated 4-well cover glass chambers (LabTek II). NHBE cells normally attached to the collagen-coated cover glass chamber within 24 hrs. Prior to these cells reaching 60% confluency, they were used for all the experiments described below. Cells used in all the experiments were either 2nd or 3rd passage cells maintained in Bronchial/Tracheal Epithelial Cell Growth Medium with Retinoic Acid (BEGM, w/RA, Clonetics).
The following procedures for loading the cells with fluorophore were employed. Balanced Hank's (BH) solution without phenol red was used as the medium for all the fluorophore preparations and cell washings unless stated otherwise. Fluo-3 (a Ca^++ indicator), di-MEQ (a Cl^− indicator) and RH421 (a cell membrane potential indicator) were loaded into cells sequentially at room temperature. Cells were first incubated with 8 μM Fluo-3 solution for 60 minutes, followed by incubating with 50 μM di-MEQ for 5 minutes and then finally with 10 μM RH421 for 5 minutes. Extraneous dyes were washed with BH solution between each fluorophore loading procedure. The cells were allowed to stabilize in BEGM for a minimum of 15 minutes at room temperature prior to the beginning of each experiment.
Experiments were performed at room temperature. All tested agents were prepared in Balanced Hank's Solution. One of the wells of the cover glass chamber was placed on the stage of the inverted microscope and the cells loaded with the fluorophores were visually focused with the violet, green and orange emitted light from the cells approximately in the same focal plane. At a sampling frequency of 100 Hz, cells with the following photon counts were chosen for the study: 20 to 50 counts per channel (cpc) for Ca^++ fluorescence, 70 to 200 cpc for Cl^− fluorescence, and 20 to 50 cpc for cell membrane potential fluorescence. After establishing a 2 minute baseline, increasing doses of the agent of interest were added topically to the wells 2 minutes apart. At the end of each experiment, a toxic dose of the agent of interest was added to the sample to either shrink or swell the cells beyond their normal cell volume regulatory range. This caused the fluorescence signals of each of these fluorophores to reach either maximum or minimum values. […] Background fluorescence was recorded using a cell free area of the same well. If the signal to background ratio was not higher than a factor of 10, the experiments were also discarded.

Setting [1] is: 25 μM to 500 μM cumulative dosing, general statement.
The mark [2] stands for this setting: Glibenclamide concentrations below 500 μM.

Turning to `O=c1ccn([C@@H]2O[C@H](COP(=O)(O)OP(=O)(O)OP(=O)(O)O)[C@@H](O)[C@H]2O)c(=O)[nH]1` [UTP, uridine triphosphate], for the setting “concentration 0.1 mM”, the “intracellular Ca++ response” value is given as “rapid increase”, the “intracellular Cl- response” value is “essentially no changes” and the membrane potential response entry is given as “essentially no changes”. For the same compound, under “concentration 1 mM”, the “intracellular Ca++ response” value is given as “rapid increase”, the “intracellular Cl- response” value is on record as “essentially no changes” and the membrane potential response entry is recorded as “essentially no changes”.
As to `COc1ccc(Cl)cc1C(=O)NCCc1ccc(S(=O)(=O)NC(=O)NC2CCCCC2)cc1` [Glibenclamide], under setting [1], the “[Cl-]i (MEQ fluorescence inversely proportional to [Cl-]i), overall effect” value is given as “increased” and the “cell membrane polarization, overall effect” value is given as “hyperpolarized”. Also, under setting [2], the “intracellular Ca++ response” value is reported as “little affected”, the “intracellular Cl- response” value is “declines as Glibenclamide concentration increases” and the membrane potential response result is recorded as “little affected”. Further, for the setting “concentration 500 μM”, the “intracellular Ca++ response” value is listed as “rapid increase”, the “intracellular Cl- response” value is on record as “simultaneous drop” and the membrane potential response entry is “simultaneous increase”.

The values above are taken from patent US20030228566A1, “Method of and apparatus for screening for drug candidates” (BioTechPlex Corporation, priority 2002, published 2003).
